# Measured values: patent US20100035857A1, “ANTI-HYPERCHOLESTEROLEMIC COMPOUNDS” (priority 2006, published 2010)
# Test system: cholesterol absorption
# Assay: Cholesterol Absorption Assay in Rats
# Type: in vivo
# Conditions: CD male rats, oral, at the highest dose tested; [3H]-cholesterol counts in liver and plasma
# Description: Compounds can be tested for cholesterol absorption activity in assays using, e.g., rats or mice, and are preferably tested in the rat assay described herein. Representative compounds of this invention were determined to inhibit cholesterol absorption employing the Cholesterol Absorption Assay in Rats, below. This assay involves comparing a test compound to ezetimibe with respect to their ability to inhibit cholesterol absorption in rats.
# Cholesterol Absorption Assay in Rats: CD male rats (n=5/group), aged 5 weeks, were dosed orally with 0.5 ml 0.25% methyl cellulose solution with or without test compound or ezetimibe (0.0003 to 1 mg/kg). 0.5 to 16 hrs later all of the rats were dosed orally with 0.5 ml […]® containing 5 μCi [^3H]-cholesterol per rat. Five hours later, the animals were euthanized, and liver and blood were collected. Cholesterol counts in liver and plasma were determined, and percent inhibition of cholesterol absorption was calculated.
structure (smiles),measurement,value
"O=C1[C@H](CC[C@H](O)c2ccc(F)cc2)[C@@H](c2ccc(O)cc2)N1c1ccc(F)cc1 [ezetimibe, Ezetimibe]",inhibition of cholesterol absorption,> 75%
